Series [1] can be described thus: Human hepatocyte stability assay. Type of series: in vitro ADME. The note with it: cryopreserved hepatocytes, 1 μM test compound, 0.5 million cells/mL, pH 7.4, 37° C., 60 min; for half-life at 1 μM: read-out: T½. The procedure:
A human hepatocyte (cryopreserved) incubation mixture containing, 0.5 million cells/mL and phosphate buffered saline (pH 7.4) was pre-incubated at 37° C. and the reaction then initiated by the addition of 1 μM test compound. The incubations were performed in duplicate. The final organic concentration was 1% (consisting of 90% acetonitrile and 10% DMSO). Positive control markers for Phase I and II metabolism were included. Samples were removed at 6 time-points over 60 min and each reaction terminated by the addition of methanol containing internal standard. After vortexing and centrifugation, the resultant supernatant was analysed by UPLC-MS.
Intrinsic clearance is calculated from the resulting concentration-time profile.
Where C(t) is the compound concentration at time t, C(0) is the starting concentration and k is the elimination rate constant.
The ln(concentration) vs time profile can be mathematically described by: ln C(t)=ln C(0)−kt
Where k represents the slope of the regression line.
Solving for k results in:
Once k is known, half-life (t½) can be calculated using: […]
Furthermore, CLint can be calculated by introducing the cell density ([cell]) in 10^6/ml: […]

Another series addresses T1, human AT2 receptor (Homo sapiens, UniProt P50052).
T1 construct: membranes prepared in house
T1 sequence (P50052 1-363): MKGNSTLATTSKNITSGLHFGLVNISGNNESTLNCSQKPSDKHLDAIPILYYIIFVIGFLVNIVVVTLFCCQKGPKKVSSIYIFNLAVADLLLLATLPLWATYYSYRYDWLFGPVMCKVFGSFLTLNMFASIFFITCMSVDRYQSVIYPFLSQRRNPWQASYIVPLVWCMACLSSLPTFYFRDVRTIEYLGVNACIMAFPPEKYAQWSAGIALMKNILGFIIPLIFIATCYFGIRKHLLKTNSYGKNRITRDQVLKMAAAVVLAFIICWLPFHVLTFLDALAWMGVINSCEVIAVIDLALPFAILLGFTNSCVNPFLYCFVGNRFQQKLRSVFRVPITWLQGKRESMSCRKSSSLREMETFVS
Kind of series: AT2 receptor binding ([125I]CGP 42112A displacement, CHO-K1 membranes). The text has this: Reagents were purchased from Sigma-Aldrich, unless otherwise specified. Dialyzed fetal bovine serum (FBS) was from Life Technologies (cat. no. 10073772). Valiscreen® human angiotensin AT2 receptor cell line (cat. no. ES-070-C), [^125I]CGP 42112A (cat. no. NEX324025UC) and MicroScint™ 40 (cat. no. 6013641) were purchased from PerkinElmer. CGP 42112A (cat. no. 2569) and PD 123,319 ditrifluoroacetate (cat. no. 1361) were from Tocris Biosciences.
• 1. Growth medium • EX-CELL® CHO DHFR^− medium • 10% FBS, dialysed • 1 mM sodium pyruvate • 2 mM L-glutamine • 2. Harvesting buffer • PBS • 2 mM EDTA • 3. Suspension buffer • 50 mM Tris-HCl, pH 7.4 • 10 mM EDTA • 4. Resuspension buffer • 50 mM Tris-HCl, pH 7.4 • 0.1 mM EDTA • 0.1% sucrose • 5. Binding assay buffer • 50 mM Tris-HCl, pH 7.4 • 5 mM MgCl2 • 1 mM EDTA • 0.1% gelatin • 6. Wash buffer • 50 mM Tris-HCl, pH 7.4 Procedure for Membrane Preparation • Valiscreen® CHO-K1 cells stably expressing the human AT2 receptor were cultured in growth medium. • Cells were seeded into T-175 flasks and grown to 70-80% confluence. • Medium was removed from confluent flasks and cells were washed with warm PBS. • Cells were harvested by incubating with harvesting buffer for 10 min at 37° C., and then transferred to a centrifuge tube on ice. • Cells were centrifuged at 200 g for 5 min at 4° C. • Cell pellets were homogenised in ice-cold suspension buffer. • Homogenates were centrifuged at 40,000 g for 15 min at 4° C. • Pellets were resuspended in ice-cold resuspension buffer and centrifuged at 40,000 g for 15 min at 4° C. • Final pellets were homogenised in ice-cold resuspension buffer. • Protein concentrations were determined by BCA assay method with BSA as standard. Compound Preparation
Compounds were prepared from 10 mM stock solutions in 100% DMSO. Dilutions were made using electronic multichannel pipettes.
• Compounds dilutions were prepared in 100% DMSO at 100× final assay concentration. • Compounds were diluted in 100% DMSO to the appropriate maximal concentration. • 30 μL compound was added to row A. • 21.6 μL of 100% DMSO was added to rows B-H. • Transfer 10 μL from row A into row B (half log dilution). • Transfer 10 μL from row B into row C (half log dilution). • Transfer 10 μL from row C into row D (half log dilution). • Transfer 10 μL from row D into row E (half log dilution). • Transfer 10 μL from row E into row F (half log dilution). • Transfer 10 μL from row F into row G (half log dilution). • Transfer 10 μL from row G into row H (half log dilution). Working Plate Preparation (96-Well Plate) • Compounds were diluted 10-fold in assay buffer. • 10 μL compound solution from dose plate was transferred to corresponding well of working plate. • 90 μL assay buffer was added to the wells of working plate. • Working solutions contained 10% DMSO in assay buffer (1% DMSO final assay concentration). Controls • Total binding (high control) was determined in the absence of unlabelled ligand. A solution of 10% DMSO in assay buffer was prepared. • Non-specific binding (low control) was determined in the presence of a vast excess (10 μM) of PD 123,319. 1 mM stock solution of PD 123,319 in water was diluted 10-fold with 10% DMSO in assay buffer. Assay Plate Preparation (96-Well Plate)
15 μL compound solution was transferred to duplicate wells of assay plate. 5 compounds were tested per plate. 15 μL control solutions were transferred to columns 1 and 12 of assay plate.

The mark [2] stands for this setting: [125I]CGP 42112A 0.05 nM, membranes of CHO-K1 cells expressing human AT2 receptor, Ki from IC50 by Cheng-Prussoff equation, read-out: Ki.

Like-named read-outs stand apart in the source and are kept apart here. Where a SMILES comes first, the peptide text is derived from it. Side-chain parts run from the residue outwards. The star is where a group is joined. Nicotinoyl = O=C(c1cccnc1)*; Cbz = O=C(OCc1ccccc1)*

As usually defined, the hepatocyte CLint is a measure of how fast metabolising enzymes remove a compound, apart from limits set by blood flow. Take `C[C@@]1(C(=O)O)C[C@H](N2CCCOc3cc(F)c(F)cc32)CN1C(=O)C(c1ccccc1)c1ccccc1` [Compound 32, (2S,4S)-4-(7,8-Difluoro-3,4-dihydrobenzo[b][1,4]oxazepin-5(2H)-yl)-1-(2,2-diphenylacetyl)-2-methylpyrrolidine-2-carboxylic acid]: in series [1], the hepatocyte CLint at 1 μM is under 3 µL/min/1e6 cells and the half-life at 1 μM was over 7.67 h. Further, on human AT2 receptor (setting [2]), the Ki came out at 3.7 nM.
The like results for `O=C(NS(=O)(=O)C1CC1)[C@@H]1C[C@H](N2CCCOc3cc(F)c(F)cc32)CN1C(=O)C(c1ccccc1)c1ccccc1` [Compound 36, (2S,4S)—N-(Cyclopropylsulfonyl)-4-(7,8-difluoro-3,4-dihydrobenzo[b][1,4]oxazepin-5(2H)-yl)-1-(2,2-diphenylacetyl)pyrrolidine-2-carboxamide] were, in that order, under 3 µL/min/1e6 cells, over 7.67 h and 2.6 nM.
As to `O=C(NS(=O)(=O)C1CC1)[C@@H]1C[C@H](N2CCCOc3cc(F)ccc32)CN1C(=O)C(c1ccccc1)c1ccccc1` [Compound 38, (2S,4S)—N-(Cyclopropylsulfonyl)-1-(2,2-diphenylacetyl)-4-(8-fluoro-3,4-dihydrobenzo[b][1,4]oxazepin-5(2H)-yl)pyrrolidine-2-carboxamide], on human AT2 receptor (setting [2]), the Ki came to 6 nM.
Take `CN(C)S(=O)(=O)NC(=O)[C@@H]1C[C@H](N2CCCOc3cc(F)c(F)cc32)CN1C(=O)C(c1ccccc1)c1ccccc1` [Compound 39, (2S,4S)-4-(7,8-Difluoro-3,4-dihydrobenzo[b][1,4]oxazepin-5(2H)-yl)-N—(N,N-dimethylsulfamoyl)-1-(2,2-diphenylacetyl)pyrrolidine-2-carboxamide]: the Ki on human AT2 receptor (setting [2]) was 10.2 nM.
On to `O=C(O)[C@@H]1C[C@H](N2CCCCc3cc(F)c(F)cc32)CN1C(=O)C(c1ccccc1)c1ccccc1` [Compound 27, (2S,4S)-4-(7,8-Difluoro-2,3,4,5-tetrahydro-1H-benzo[b]azepin-1-yl)-1-(2,2-diphenylacetyl)pyrrolidine-2-carboxylic acid], for which the Ki at human AT2 receptor (setting [2]) was 2.8 nM.
In the case of `COc1ccc2c(c1)CCCCN2[C@H]1C[C@@H](C(=O)O)N(C(=O)C(c2ccccc2)c2ccccc2)C1` [Compound 4, (2S,4S)-1-(2,2-Diphenylacetyl)-4-(7-methoxy-2,3,4,5-tetrahydro-1H-benzo[b]azepin-1-yl)pyrrolidine-2-carboxylic acid], the Ki at human AT2 receptor (setting [2]) came to 8.8 nM.
For `O=C(O)[C@@H]1C[C@H](N2CCCCCc3ccccc32)CN1C(=O)C(c1ccccc1)c1ccccc1` [Compound 13, (2S,4S)-1-(2,2-Diphenylacetyl)-4-(3,4,5,6-tetrahydrobenzo[b]azocin-1(2H)-yl)pyrrolidine-2-carboxylic acid], the Ki at human AT2 receptor (setting [2]) was determined as 8.7 nM.
Same read-out and setting: then `Cc1ccc2c(c1)N([C@H]1C[C@@H](C(=O)O)N(C(=O)C(c3ccccc3)c3ccccc3)C1)CCCC2` [Compound 3, (2S,4S)-1-(2,2-Diphenylacetyl)-4-(8-methyl-2,3,4,5-tetrahydro-1H-benzo[b]azepin-1-yl)pyrrolidine-2-carboxylic acid], with 34 nM.
As for `O=C(O)[C@@H]1C[C@@H](N2CCCCc3ccncc32)CN1C(=O)C(c1ccccc1)c1ccccc1` [Compound 28, (2S,4R)-1-(2,2-Diphenylacetyl)-4-(2,3,4,5-tetrahydro-1H-pyrido[3,4-b]azepin-1-yl)pyrrolidine-2-carboxylic acid], on human AT2 receptor (setting [2]), the Ki was determined as 33 nM.
Same read-out and setting: then `O=C(O)[C@@H]1C[C@H](N2CCCCc3cc(F)ccc32)CN1C(=O)C(c1ccccc1)c1ccccc1` [Compound 5, (2S,4S)-1-(2,2-Diphenylacetyl)-4-(7-fluoro-2,3,4,5-tetrahydro-1H-benzo[b]azepin-1-yl)pyrrolidine-2-carboxylic acid], with 9.8 nM.
In the case of `C[C@@]1(C(=O)O)C[C@H](N2CCCOc3cc(F)ccc32)CN1C(=O)C(c1ccccc1)c1ccccc1` [Compound 33, (2S,4S)-1-(2,2-Diphenylacetyl)-4-(8-fluoro-3,4-dihydrobenzo[b][1,4]oxazepin-5(2H)-yl)-2-methylpyrrolidine-2-carboxylic acid], on human AT2 receptor (setting [2]), the Ki is 7 nM.
Regarding `CC[C@H](C)[C@H](NC(=O)[C@@H]1CCCN1C(=O)[C@H](Cc1c[nH]cn1)NC(=O)[C@H](CCCCNC(=O)[C@H](CCCN=C(N)N)NC(=O)OCc1ccccc1)NC(=O)[C@H](Cc1ccc(O)cc1)NC(=O)c1cccnc1)C(=O)O` [CGP 42112A, reference compound] (Nicotinoyl-YK([Arg-Cbz])HPI-OH), the Ki on human AT2 receptor (standard compounds, mean±S.E.M., read-out: Dissociation constants (pKi) (converted)) is 0.178 nM.
Turning to `NC(=O)[C@@H]1C[C@H](N2CCCCc3ccccc32)CN1C(=O)C(c1ccccc1)c1ccccc1` [Compound 15, (2S,4S)-1-(2,2-Diphenylacetyl)-4-(2,3,4,5-tetrahydro-1H-benzo[b]azepin-1-yl)pyrrolidine-2-carboxamide], the Ki on human AT2 receptor (setting [2]) came to 66.8 nM.
The same measure, in the same setting: then `C[C@@]1(C(=O)O)C[C@H](N2CCCCc3ccccc32)CN1C(=O)C(c1ccccc1)c1ccccc1` [Compound 30, (2S,4S)-1-(2,2-Diphenylacetyl)-2-methyl-4-(2,3,4,5-tetrahydro-1H-benzo[b]azepin-1-yl)pyrrolidine-2-carboxylic acid], with 3.3 nM.

The values above are taken from patent publication US10065943B2, “Pyrrolidine derivatives as angiotensin II type 2 antagonists” (NOVARTIS AG, priority 2015, dated 2018).
